Experimental findings from US20100093692A1, “PIPERIDINYL-PIPERIDINE AND PIPERAZINYL-PIPERIDINE FOR USE IN THE TREATMENT OF DIABETES OR PAIN” (Schering Corporation Sechering-Plough Corporation, priority 2007, published 2010) are described below.

Where a name gives a salt, the structure may show the parent alone.

The target in series [1] is T1, H3 receptors (Cavia porcellus, UniProt Q9JI35).
T1 construct: The source of the H3 receptors in this experiment was guinea pig brain; from tissue; host or cells: guinea pig brain membranes
T1 sequence (Q9JI35 whole entry): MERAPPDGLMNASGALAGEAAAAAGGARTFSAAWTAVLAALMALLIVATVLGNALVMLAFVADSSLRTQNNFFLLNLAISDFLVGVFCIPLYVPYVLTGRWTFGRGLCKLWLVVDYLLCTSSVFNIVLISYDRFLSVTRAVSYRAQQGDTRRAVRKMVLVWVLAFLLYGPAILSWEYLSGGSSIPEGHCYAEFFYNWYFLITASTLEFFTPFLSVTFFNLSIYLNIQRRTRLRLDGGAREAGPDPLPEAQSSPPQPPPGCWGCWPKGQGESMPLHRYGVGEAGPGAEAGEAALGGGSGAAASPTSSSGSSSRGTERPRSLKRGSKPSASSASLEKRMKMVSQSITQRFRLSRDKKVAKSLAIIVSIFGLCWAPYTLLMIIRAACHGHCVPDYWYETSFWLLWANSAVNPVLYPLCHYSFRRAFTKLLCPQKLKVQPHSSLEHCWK
Kind of series: Guinea pig H3 receptor binding assay. The note with it: guinea pig brain membranes; [3H]R-α-methyl histamine or [3H]Nα-methyl histamine; range stated for a group of compounds. The method, then: The source of the H3 receptors in this experiment was guinea pig brain obtained from animals weighing 400-600 g. The brain tissue was homogenized with a solution of 50 mM Tris, pH 7.5. The final concentration of tissue in the homogenization buffer was 10% w/v. The homogenates were centrifuged at 1,000×g for 10 minutes in order to remove clumps of tissue and debris. The resulting supernatants were then centrifuged at 50,000×g for 20 minutes in order to sediment the membranes, which were then washed three times in homogenization buffer (50,000×g for 20 minutes each). The membranes were frozen and stored at −70° C. until needed.
All compounds to be tested were dissolved in DMSO and then diluted into the binding buffer (50 mM Tris, pH 7.5) such that the final concentration was 2 μg/mL with 0.1% DMSO. Membranes were then added (400 μg of protein) to the reaction tubes. The reaction was started by the addition of 3 nM [^3H]R-α-methyl histamine (8.8 Ci/mmol) or 3 nM [^3H]N^α-methyl histamine (80 Ci/mmol) and continued under incubation at 30° C. for 30 minutes. Bound ligand was separated from unbound ligand by filtration, and the amount of radioactive ligand bound to the membranes was quantitated by liquid scintillation spectrometry. All incubations were performed in duplicate and the standard error was always less than 10%. Compounds that inhibited more than 70% of the specific binding of radioactive ligand to the receptor were serially diluted to determine a Ki (nM).

In series [2] the target is T2, human histamine H3 receptor (Homo sapiens, UniProt Q9Y5N1).
T2 construct: The full-length human histamine H3 receptor was cloned by PCR; expressed in transfected cells
T2 sequence (Q9Y5N1 whole entry): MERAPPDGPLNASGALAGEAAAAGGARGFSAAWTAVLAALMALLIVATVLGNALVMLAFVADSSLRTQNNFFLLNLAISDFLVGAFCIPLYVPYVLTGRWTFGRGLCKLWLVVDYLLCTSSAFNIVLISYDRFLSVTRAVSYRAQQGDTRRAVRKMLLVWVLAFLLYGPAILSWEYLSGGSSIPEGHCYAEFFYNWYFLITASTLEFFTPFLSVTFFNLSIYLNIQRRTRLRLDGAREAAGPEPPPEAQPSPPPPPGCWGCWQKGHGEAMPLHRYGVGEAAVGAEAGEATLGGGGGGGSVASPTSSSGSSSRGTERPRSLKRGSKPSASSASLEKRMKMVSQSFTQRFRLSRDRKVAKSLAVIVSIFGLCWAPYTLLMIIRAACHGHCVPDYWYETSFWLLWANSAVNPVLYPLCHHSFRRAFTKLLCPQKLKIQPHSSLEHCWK
Kind of series: Human H3 receptor binding assay. The conditions noted are these: HEK-293 membranes expressing human H3; 1 nM [3H]N-α-methylhistamine; n=4. The method, then:
The full-length human histamine H3 receptor was cloned by PCR from a human thalamus cDNA library, with primers derived from a public database, and inserted into the CMV promoter-driven expression vector pcDNA-3.1 (Invitrogen). HEK-293 human embryonic kidney cells (ATCC) were transfected with H3 receptor plasmid and stably expressing cells were selected with G-418. Cells were grown in Dulbecco's modified Eagle's medium/10% fetal calf serum containing high glucose, 25 mM Hepes, penicillin (100 U/ml), streptomycin (100 ug/ml), 2 mM glutamine, and 0.5 mg G-418/ml at 37° C. in a humidified atmosphere of 5% CO2. For membrane preparations, cells were harvested using aspirating media, replacing it with 5 mM EDTA/0.02% trypsin/Hank's balanced salt solution, followed by incubation at 37° C. for 5 to 10 minutes. […] Nonspecific binding was determined in the presence of 10^-5 M thioperamide. After a 30 minute incubation at 30° C., assay mixtures were filtered through 0.3% polyethylenimine-soaked GF/B glass fiber filters, which were then rinsed thrice with buffer, dried, impregnated with Meltilex wax scintillant, and counted. IC50 values were determined from curves fit to the data using a non-linear, least-squares, curve-fitting program and Ki values were determined using the method of Cheng and Prusoff.

For series [3], the system named is STZ-DIO Sprague-Dawley rats (T2DM). Description: In vivo effect on glucose and HbA1c in STZ-DIO diabetic rats. The arrangement: species or system rat. The conditions noted are these: two weeks. The procedure: Seventy male DIO Sprague-Dawley rats were fed HFD (45% Kcal fat) for 3 months from weaning, and were given streptozotocin (STZ) intraperitoneally at 25 mg/kg to induce type 2 diabetes (T2DM). Forty four T2DM rats were chosen for the study two weeks after STZ injection (n=11 per group, with body weights between 632 and 838 g, non-fasting glucose between 226 and 426 mg/dl and HbA1c between 8.7% and 10.9%) and were given ad libitum access to pre-weighed 45% fat (kcal) HFD or Compound 287 (1.4, 2.9 mg/g in HFD) for two weeks. Body weight, non-fasting glucose and food intake were monitored daily. Body composition and HbA1c levels were monitored before and after the two-week study by the whole body magnetic resonance analyzer and Cholestech GDX analyzer (Hayward, Calif.), respectively. The STZ-DIO rats had elevated non-fasting glucose and HbA1c levels (non-fasting glucose were between 226 and 426 mg/dl; and HbA1c were between 8.7% and 10.9%) two weeks after STZ injection. The low dose of STZ caused a 48% reduction of plasma insulin levels, which was not sufficient to cause hyperglycemia in rats fed with chow diet. In contrast, this level of plasma insulin induced hyperglycemia in the face of insulin resistance induced by the HFD. […] The control STZ-DIO rats maintained non-fasting glucose levels above […] (+12 mg/dl), which led to a significant 0.96% increase in HbA1c over 14 days.

In series [4] the test system is diabetic Goto-Kakizaki rats. Kind of series: In vivo effect on glucose levels in diabetic Goto-Kakizaki rats. The arrangement: species or system rat. The conditions noted are these: 10 mg/kg/day in food chow, one week; untreated rats 34 mg/dl. The procedure:
Adult, diabetic, Goto-Kakizaki rats (14 weeks old) were tested for non-fasting glucose levels using a glucometer. Rats with glucose levels between 130 and 370 mg/dl were randomized into treatment (N=10) and control (N=10) groups. Animals in the treatment group were administered Compound 446 in their food chow at a dose of 10 mg/kg/day. After one week of treatment, blood was collected via tail snip and the non-fasting glucose level was measured using a glucometer.

Series [5] concerns STZ-induced type 2 diabetic mice. Kind of series: In vivo effect on glucose levels in diabetic mice (western diet + low dose STZ). Further details: species or system mouse. The note with it: 10 mg/kg/day in diet, four weeks; relative to control mice and mice treated with rosiglitazone (5 mg/kg/day in diet). The procedure:
Five-week-old male ICR mice were purchased from Taconic Farm (Germantown, N.Y.) and placed on a “western diet” containing 45% (kcal) fat from lard and 0.12% (w/w) cholesterol. After 3 weeks of feeding, the mice were injected once with low dose streptozocin (STZ, ip 80 mg/kg) to induce partial insulin deficiency. […] The diabetic mice were then placed in one of three groups: (1) a non-treated control group, (2) a group treated with rosiglitazone (5 mg/kg/day in diet); or (3) a group treated with Compound 446 (10/mg/kg/day in diet). All animals were treated for four weeks.

Consider `CON=C(CC1CCN(C(=O)C2CCN(Cc3ccnc(N)c3)CC2)CC1)c1ccccn1` (as salt: maleate) [Compound 117], for which the melting point fell in the range of 160 to 163 °C.

On to `CO/N=C(\c1ccccn1)C1CCN(C(=O)C2CCN(Cc3ccnc(N)c3)CC2)CC1` [Compound 33], for which, in series [1], the Ki lay in the range of 0.83 to 16 nM.

As to `CON=C(c1ccc(Cl)cc1)C1CCN(C(=O)C2CCN(Cc3ccnc(N)c3)CC2)CC1` [Compound 280], the Ki in series [1] was 0.83 to 16 nM.

Take `CO/N=C(/c1ccccn1)C1CCN(C(=O)C2CCN(Cc3cnc(N)nc3)CC2)CC1` [Compound 287]: in series [2], the Ki amounted to 25 ± 4 nM. Besides, the “decrease in HbA1c level” value in series [3] (68 mg/kg/day, 2.9 mg/g in HFD, control 0.96% increase) was determined as 0.6%. Further, the “change in non-fasting glucose” value in series [3] (68 mg/kg/day, 2.9 mg/g in HFD, control +12 mg/dl) was -43 mg/dL. In addition, the “HbA1c levels over the two week study period” value in series [3] (1.4, 2.9 mg/g in HFD) is recorded as “dose-dependent reduction”.

As for `CO/N=C(/c1ccc(Cl)cc1)C1CCN(C(=O)C2CCN(Cc3ccncc3)CC2)CC1` [Compound 273], the Ki in series [1] fell in the range of 0.83 to 16 nM.

In series [1], `CO/N=C(/c1ccc(Cl)cc1)C1CCN(C(=O)C2CCN(Cc3ccnc(N)c3)CC2)CC1` [Compound 225] registered a Ki of 0.83 to 16 nM.

Molecule `CO/N=C(/c1ccccn1)C1CCN(C(=O)C2CCN([C@H](C)c3ccnc(N)c3)CC2)CC1` [Compound 55] displayed a Ki in series [1] of 0.83 to 16 nM.

`CO/N=C(\c1ccccn1)C1CCN(C(=O)C2CCN([C@@H](C)c3ccnc(N)c3)CC2)CC1` [Compound 56]: the Ki in series [1] fell in the range of 0.83 to 16 nM.

Turning to `CON=C(c1ccccn1)C1CCN(C(=O)C2CCN(Cc3ccnc(N)c3)CC2)CC1` [Compound 31], the Ki in series [1] is 0.83 to 16 nM.

As to `Nc1cc(CN2CCC(C(=O)N3CCC(C(=O)c4ccccn4)CC3)CC2)ccn1` [Compound 30], the Ki in series [1] was 0.83 to 16 nM.

`Nc1cc(CN2CCC(C(=O)N3CCC(C(=NO)c4ccccn4)CC3)CC2)ccn1` [Compound 237] gave a Ki in series [1] of 0.83 to 16 nM.

For the molecule `CO/N=C(/c1ccccn1)C1CCN(C(=O)C2(F)CCN(Cc3ccnc(N)c3)CC2)CC1` [Compound 446], the “average reduction in non-fasting glucose levels” value in series [4] came out at 81 mg/dL. For the same molecule, in series [5], the HbA1C levels result is listed as “significantly reduced” and the non-fasting glucose levels entry was “significantly reduced”.

The molecule `CO/N=C(/c1ccccn1)C1CCN(C(=O)C2CCN(Cc3ccnc(N)c3)CC2)CC1` [Compound 32] showed a Ki in series [1] of 0.83 to 16 nM.

Turning to `CO/N=C(/c1ccccn1)C1CCN(C(=O)C2CCN([C@@H](C)c3ccnc(N)c3)CC2)CC1` [Compound 54], the Ki in series [1] fell in the range of 0.83 to 16 nM.

In general, melting point refers to the temperature, or range, at which the solid turns liquid. The term Ki denotes a measure of affinity in units of concentration, obtained from inhibition or displacement. Lower therefore signals tighter binding.
